The source of these data is patent US4255519A, “Glycerol oxidase and process for the production thereof” (priority 1978, dated 1981).

Each structure is given as a SMILES string.

For one experiment, the system named is glycerol oxidase II. Put plainly: Substrate affinity: Michaelis constant against glycerol. Format: biochemical, Penicillium sp. KY 868. The settings on record: glycerol oxidase II of the genus Penicillium. The text has this: *Determination of Michaelis constant is described in the following reference. H. Lineweaver and D. Burk, J. Amer. Chem. Soc., 56, 658 (1934).
Usually Km stands for the substrate concentration at which the rate is half of its maximum. Consider `OCC(O)CO` [Glycerol], for which the Km was 8 mM.

A further experiment has as its system glycerol oxidase II. Put plainly: Substrate specificity, relative activity by 4-AA method.
Settings: not given
In kind it is biochemical, Penicillium sp. KY 868. On the procedure: The relative activity is measured using other substrates in equimolar amounts to that of glycerol in the procedure for measuring the activity according to 4-AA method.
The relative activities on other substrates are given in Table 3, the activity on glycerol being defined as 100.
The enzyme activity is expressed by "unit." A "unit" of the enzyme activity is defined as that amount of enzyme which will decompose 1 μ mole of glycerol at 37° C. in 1 minute in the presence of oxygen. The determination of the enzyme activity is carried out as follows: glycerol is reacted with glycerol oxidase II with stirring to form hydrogen peroxide, and 4-aminoantipyrine and phenol are reacted with the resulting hydrogen peroxide in the presence of peroxidase to derive quinoneimine pigment. The optical density in the visible portion of the resulting quinoneimine pigment is measured to determine the amount of generated hydrogen peroxide, whereby the enzyme activity is determined (which will be hereinafter referred to as "4-AA method").
The reagents (1)-(6) are mixed in a test tube, and then shaken at 37° C. for 5 minutes. Then, enzyme solution is added thereto, and thus obtained mixture is made up to 3 ml with TES buffer solution. Reaction is carried out at 37° C. for 10 minutes with shaking. On the other hand, similar procedure is repeated using water in place of the test solution as a reference. The optical density of the reaction solution at 500 nm is measured, and a difference from the control is determined as ΔOD (optical density).
Regarding `O=C(CO)CO` [Dihydroxyacetone], the “Substrate specificity (in words)” value is recorded as “reacts specifically”.
Same read-out and setting: for `OCC(O)CO` [Glycerol] the value was “reacts specifically”.

The same experiment, now with this note: substrate equimolar to glycerol; activity on glycerol defined as 100; 4-AA method.
Consider `CC(O)CCO` (stereo not shown) [1,3-Butanediol], for which the Relative activity turned out to be 11.
`O=C(CO)CO` [Dihydroxyacetone] gave a Relative activity of 293.
As for `OCCCCO` [1,4-Butanediol], the Relative activity is 11.
`CC(O)CO` (stereo not shown) [1,2-Propanediol] came in with a Relative activity of 11.
The same measure, in the same setting: for `O=P(O)(O)OCC(O)CO` (stereo not shown) [Glycerol-3-phosphoric acid] the value was 12.
Still for that read-out and setting: for `CCCO` [n-Propyl alcohol] the value was 11.
Take `CC(C)O` [iso-Propyl alcohol]: the Relative activity worked out at 23.
Still for that read-out and setting: the value for `OCC(O)CO` [Glycerol] was 100; that for `CC(O)C(C)O` (stereo not shown) [2,3-Butanediol] was 16.
On the same count and under the same terms, the value for `CCCCO` [n-Butyl alcohol] was 7; that for `CCC(C)O` (stereo not shown) [sec-Butyl alcohol] was 9; that for `CC(C)CO` [iso-Butyl alcohol] was 14.
On the same count and under the same terms, the value for `OCCCO` [1,3-Propanediol] was 23; that for `CCO` [Ethanol] was 11.

Another experiment has as its system glycerol oxidase II. Description: Inhibitors of enzyme: activity with 1 mM inhibitor, oxygen consumption rate by Warburg's manometer. Format: biochemical, Penicillium sp. KY 868. Conditions: activity with no inhibitor defined as 100, from oxygen consumption rate. On the procedure: Enzymes activities obtained by adding 1 mM of various inhibitors are shown in Table 1, the activity of the enzyme with no addition of the inhibitor being defined as 100. The activities are calculated from consumption rate of oxygen used in reaction measured by Warburg's manometer.
Take `NO` [NH2 OH]: the “Relative rate (%)” value was 0%.
On the same count and under the same terms, the value for `c1ccc(-c2ccccn2)nc1` [α,α'-Dipyridyl] was 75.7%.
With `CC(=O)[O-].CC(=O)[O-].[Pb+2]` [Pb(CH3 COO)2], the “Relative rate (%)” value amounted to 26.3%.
Same read-out and setting: the value for `O=C(O)CN(CCN(CC(=O)O)CC(=O)O)CC(=O)O` [EDTA] was 82.8%.
As for `[Cl-].[Cl-].[Zn+2]` [ZnCl2], the “Relative rate (%)” value stood at 84.3%.
Same read-out and setting: the value for `c1cnc2c(c1)ccc1cccnc12` [o-Phenanthroline] was 65.5%.
On to `O=C(O)c1cc[c]([Hg][Cl])cc1` [p-Chloromercuri benzoate], for which the “Relative rate (%)” value came out at 81.4%.
Turning to `[Cl][Hg][Cl]` [HgCl2], the “Relative rate (%)” value is 79.0%.
The same measure, in the same setting: the value for `CCN(CC)C(=S)S` [Diethyl dithiocarbamate] was 0%; that for `Cc1ccc2ccc3ccc(C)nc3c2n1` [Neocuproine] was 80.3%.
`O=[N+]([O-])[O-].[Ag+]` [AgNO3]: the “Relative rate (%)” value worked out at 0%.
Same read-out and setting: for `O=S(=O)([O-])[O-].[Fe+2]` [FeSO4] the value was 0%.

The next experiment has as its system glycerol oxidase I.
Test: not given
Conditions: glycerol oxidase I of Neurospora crassa (U.S. application Ser. No. 897,695); cited from earlier work.
`OCC(O)CO` [Glycerol]: the Km is 19 mM.

For another experiment, the system named is glycerol oxidase I.
Test: not given
Conditions: glycerol oxidase I of Aspergillus japonicus (U.S. application Ser. No. 897,695); cited from earlier work.
Turning to `OCC(O)CO` [Glycerol], the Km was 18.5 mM.
